Assay results from ChEMBL document CHEMBL4393671, “Design of a Cyclin G Associated Kinase (GAK)/Epidermal Growth Factor Receptor (EGFR) Inhibitor Set to Interrogate the Relationship of EGFR and GAK in Chordoma” (J Med Chem, 2019).
pIC50, pKd: −log10 of the molar value. Active and inactive are the calls of the source. The rule behind the calls is not given here.

Columns and labels:
[1] = target: T1, Epidermal growth factor receptor (Homo sapiens, UniProt P00533); assay: Inhibition of EGFR in human UCH1 cells assessed as reduction in EGF-induced EGFR phosphorylation at Y1068 residue at 1 uM preincubated for 4 hrs followed by EGF--stimulation and measured after 15 mins by Western blot analysis relative to control; format: cell-based
[2] = target: T2, Cyclin-G-associated kinase (Homo sapiens, UniProt O14976); assay: Inhibition of tracer 5 binding to human N-terminal nano luciferase-fused GAK expressed in HEK293 cells measured after 2 hrs by nanoBRET assay; format: cell-based; conditions: hek293
T2 sequence (O14976 whole entry): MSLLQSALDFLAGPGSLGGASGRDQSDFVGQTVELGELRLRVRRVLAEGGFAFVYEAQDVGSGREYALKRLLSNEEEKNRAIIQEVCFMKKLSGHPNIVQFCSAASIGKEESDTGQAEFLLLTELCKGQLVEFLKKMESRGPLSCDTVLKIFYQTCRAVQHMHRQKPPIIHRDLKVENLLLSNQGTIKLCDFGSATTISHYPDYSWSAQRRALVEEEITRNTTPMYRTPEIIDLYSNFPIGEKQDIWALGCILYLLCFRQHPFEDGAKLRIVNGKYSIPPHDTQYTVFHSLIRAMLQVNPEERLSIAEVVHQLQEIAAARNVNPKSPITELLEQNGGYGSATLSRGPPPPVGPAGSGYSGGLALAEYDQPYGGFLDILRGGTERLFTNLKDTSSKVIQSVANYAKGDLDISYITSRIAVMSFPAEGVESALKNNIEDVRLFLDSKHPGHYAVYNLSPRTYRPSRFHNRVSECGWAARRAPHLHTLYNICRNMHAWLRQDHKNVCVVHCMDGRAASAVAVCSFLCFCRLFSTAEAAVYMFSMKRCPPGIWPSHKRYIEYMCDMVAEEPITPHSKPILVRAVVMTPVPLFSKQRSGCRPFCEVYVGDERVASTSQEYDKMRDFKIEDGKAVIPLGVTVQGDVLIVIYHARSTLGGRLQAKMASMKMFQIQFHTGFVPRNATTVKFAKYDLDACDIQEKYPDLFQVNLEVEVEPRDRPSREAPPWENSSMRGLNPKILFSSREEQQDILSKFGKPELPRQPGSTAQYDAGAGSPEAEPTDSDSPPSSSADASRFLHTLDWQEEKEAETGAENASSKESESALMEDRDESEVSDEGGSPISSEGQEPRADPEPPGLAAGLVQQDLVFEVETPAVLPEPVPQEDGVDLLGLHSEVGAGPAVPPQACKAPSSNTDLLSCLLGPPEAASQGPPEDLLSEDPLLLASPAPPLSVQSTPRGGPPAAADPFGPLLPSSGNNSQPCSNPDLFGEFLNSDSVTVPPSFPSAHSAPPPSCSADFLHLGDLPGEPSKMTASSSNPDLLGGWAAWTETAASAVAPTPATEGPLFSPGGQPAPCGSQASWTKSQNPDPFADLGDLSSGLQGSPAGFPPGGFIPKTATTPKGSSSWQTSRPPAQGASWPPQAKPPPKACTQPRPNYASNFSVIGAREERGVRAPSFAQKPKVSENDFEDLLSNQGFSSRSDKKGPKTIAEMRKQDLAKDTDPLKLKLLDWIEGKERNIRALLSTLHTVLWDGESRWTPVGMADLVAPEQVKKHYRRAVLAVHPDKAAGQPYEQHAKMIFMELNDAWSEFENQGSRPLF

[3] = Effect on total EGFR expression in human UCH2 cells at 1 to 10 uM measured after 4 hrs by Western blot analysis; format: ADME, cell-based
[4] = target: T1, Epidermal growth factor receptor
Description: Binding affinity to wild-type human partial length EGFR (R669 to V1011 residues) expressed in bacterial expression system by Kinomescan method

[5] = target: T3, Serine/threonine-protein kinase Nek1 (Homo sapiens) (UniProt Q96PY6); assay: Binding affinity to NEK1 in human SUM159 cell lysates by multiplexed inhibitor bead profiling-based LC-MS/MS analysis; format: subcellular; conditions: Lysate
T3 sequence (whole entry): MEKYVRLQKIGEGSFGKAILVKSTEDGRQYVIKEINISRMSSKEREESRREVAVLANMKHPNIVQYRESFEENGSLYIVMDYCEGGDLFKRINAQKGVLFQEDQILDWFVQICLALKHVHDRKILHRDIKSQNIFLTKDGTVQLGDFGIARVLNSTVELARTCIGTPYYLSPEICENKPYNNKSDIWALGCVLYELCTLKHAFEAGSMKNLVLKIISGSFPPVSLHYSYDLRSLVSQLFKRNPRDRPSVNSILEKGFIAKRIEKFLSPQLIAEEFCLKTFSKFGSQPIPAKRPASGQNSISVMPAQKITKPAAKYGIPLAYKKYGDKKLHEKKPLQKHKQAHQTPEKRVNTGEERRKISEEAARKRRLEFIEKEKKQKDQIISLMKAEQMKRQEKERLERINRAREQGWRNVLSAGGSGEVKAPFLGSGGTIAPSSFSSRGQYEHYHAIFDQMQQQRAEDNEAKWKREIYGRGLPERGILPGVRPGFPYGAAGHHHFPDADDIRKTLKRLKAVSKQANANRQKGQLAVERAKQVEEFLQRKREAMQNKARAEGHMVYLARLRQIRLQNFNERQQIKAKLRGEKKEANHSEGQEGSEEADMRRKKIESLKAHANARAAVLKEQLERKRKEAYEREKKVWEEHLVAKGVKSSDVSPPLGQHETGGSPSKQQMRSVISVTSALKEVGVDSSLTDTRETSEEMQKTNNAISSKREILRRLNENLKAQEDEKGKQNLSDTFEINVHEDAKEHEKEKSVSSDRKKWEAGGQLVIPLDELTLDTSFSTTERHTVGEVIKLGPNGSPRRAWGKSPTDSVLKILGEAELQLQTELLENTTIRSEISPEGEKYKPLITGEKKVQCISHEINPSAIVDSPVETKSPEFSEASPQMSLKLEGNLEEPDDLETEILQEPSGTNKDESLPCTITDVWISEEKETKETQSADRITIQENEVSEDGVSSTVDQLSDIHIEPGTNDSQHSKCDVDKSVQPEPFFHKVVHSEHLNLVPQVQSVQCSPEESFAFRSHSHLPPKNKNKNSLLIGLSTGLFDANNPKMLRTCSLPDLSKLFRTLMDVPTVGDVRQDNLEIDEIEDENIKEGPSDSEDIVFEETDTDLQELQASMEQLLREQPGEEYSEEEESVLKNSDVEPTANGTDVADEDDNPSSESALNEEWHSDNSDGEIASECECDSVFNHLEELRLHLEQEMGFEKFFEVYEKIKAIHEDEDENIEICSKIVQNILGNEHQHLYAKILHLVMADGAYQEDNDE

[6] = cells; format: functional, cell-based; conditions: Homo sapiens, 72 h
Description: Antiproliferative activity against human UMCHOR1 cells measured after 72 hrs by alamar blue assay

[7] = target: T2, Cyclin-G-associated kinase; assay: Binding affinity to wild-type human partial length GAK (G13 to Y338 residues) expressed in bacterial expression system by Kinomescan method
[8] = cells; format: functional, cell-based; conditions: Homo sapiens, UCH1, 72 h
Description: Antiproliferative activity against human UCH1 cells measured after 72 hrs by alamar blue assay

[9] = Effect on total EGFR expression in human UCH1 cells at 1 to 10 uM measured after 4 hrs by Western blot analysis; format: ADME, cell-based

T1 sequence (P00533 whole entry, the tested form may be a part): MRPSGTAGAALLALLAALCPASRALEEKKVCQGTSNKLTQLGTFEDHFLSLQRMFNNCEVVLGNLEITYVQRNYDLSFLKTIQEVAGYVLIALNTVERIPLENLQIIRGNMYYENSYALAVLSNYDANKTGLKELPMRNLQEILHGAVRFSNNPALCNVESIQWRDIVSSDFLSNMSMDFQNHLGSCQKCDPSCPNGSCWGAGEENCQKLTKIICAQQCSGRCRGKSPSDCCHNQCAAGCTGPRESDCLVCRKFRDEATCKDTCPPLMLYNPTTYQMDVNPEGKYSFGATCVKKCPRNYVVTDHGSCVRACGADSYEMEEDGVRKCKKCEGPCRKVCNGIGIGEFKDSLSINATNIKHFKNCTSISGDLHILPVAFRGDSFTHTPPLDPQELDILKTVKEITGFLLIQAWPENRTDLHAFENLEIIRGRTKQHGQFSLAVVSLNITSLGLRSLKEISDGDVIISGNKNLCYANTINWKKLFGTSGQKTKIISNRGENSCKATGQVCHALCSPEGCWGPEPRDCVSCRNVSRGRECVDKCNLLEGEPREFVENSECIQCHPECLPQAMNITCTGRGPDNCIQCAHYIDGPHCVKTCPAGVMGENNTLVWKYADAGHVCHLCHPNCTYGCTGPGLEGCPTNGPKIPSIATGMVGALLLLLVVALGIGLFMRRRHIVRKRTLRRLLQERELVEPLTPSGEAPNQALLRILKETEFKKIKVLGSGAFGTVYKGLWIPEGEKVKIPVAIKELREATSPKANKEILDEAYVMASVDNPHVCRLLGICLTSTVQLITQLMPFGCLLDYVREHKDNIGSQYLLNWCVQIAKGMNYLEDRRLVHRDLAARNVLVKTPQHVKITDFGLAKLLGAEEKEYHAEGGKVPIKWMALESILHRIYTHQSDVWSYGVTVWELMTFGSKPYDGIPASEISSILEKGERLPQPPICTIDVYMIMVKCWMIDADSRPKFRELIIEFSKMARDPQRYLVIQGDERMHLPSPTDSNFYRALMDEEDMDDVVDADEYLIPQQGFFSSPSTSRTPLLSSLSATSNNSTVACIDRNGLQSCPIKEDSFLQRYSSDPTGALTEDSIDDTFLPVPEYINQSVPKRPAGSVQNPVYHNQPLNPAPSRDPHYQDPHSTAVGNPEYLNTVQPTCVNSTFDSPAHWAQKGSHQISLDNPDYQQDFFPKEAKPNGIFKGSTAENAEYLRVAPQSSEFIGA

With `C#Cc1cccc(Nc2ccnc3cc(OC)c(OC)cc23)c1` as the compound, how does the inhibition [1] read?
The inhibition was 0%.

And the pIC50 [2]?
The pIC50 was 6.30.

And the Activity [3]?
The Activity was “Non-Toxic”.

And the pKd [4]?
Its pKd is 9.57.

What about the Activity [5] of the same compound?
The Activity was “Active”.

And the pIC50 [6]?
Its pIC50 is 4.85.

What about the pKd [7] of the same compound?
Its pKd is 8.12.

And the pIC50 [8]?
Its pIC50 is 5.68.

And the Activity [9]?
The Activity was “Non-Toxic”.
